# Reference: publication PMC10877564, “Activity of Gut-Derived Nisin-like Lantibiotics against Human Gut Pathogens and Commensals” (ACS Chemical Biology, 2024)
# Positions of bridges follow the written chain, without caps; N, C: chain ends. Non-standard residues stand in square brackets, D forms with d. No end group written: not given here. Abu = CC[C@H](N)C(=O)O; Dhb = C/C=C(\N)C(=O)O; Dha = C=C(N)C(=O)O
# Key:
# S. aureus USA300 (MRSA) = assay: MIC assay, anaerobic broth dilution; format: cell-based, Staphylococcus aureus; details: BHIS, 37 °C, 48 h, 3-fold serial dilution
# From the text: (§1) Next, we set out to test the antimicrobial activities of these purified lantibiotics against a panel of Gram-positive bacteria that are representatives of some of the most prevalent human pathogens: VRE, Methicillin-resistant S. aureus USA300 (MRSA), Methicillin-resistant Staphylococcus epidermidis SK135 (MRSE), Listeria monocytogenes 10403S, and Clostridioides difficile VPI10463. We examined the growth of bacteria in a 96-well plate under a concentration gradient of lantibiotics under anaerobic conditions (Figure S2B).
# (§2) Elution Buffer (4 M guanidine hydrochloride, 20 mM Tris HCl, pH 7.5 at 25 °C, 100 mM NaCl, 1 M imidazole). Peptides eluted from the Ni resin were concentrated and desalted using 3 kDa Amicon filters (Millipore). For leader peptide removal, the peptide (1:20 trypsin to peptide) was incubated with the trypsin protease in 50 mM Tris-HCl, pH 8 overnight at 37 °C. Lastly, the core peptides were further purified with HPLC using an Agilent 1200 instrument (Agilent) as specified […]
# (§3) in general methods. […]
# (§4) For broth cultures, isolates were grown in pre-reduced BHI supplemented with 5 g/L yeast extract (Difco, BD) and 0.1% L-cysteine under anaerobic condition. […]
# (§5) All MIC assays were performed under anaerobic condition. […] Lantibiotics were dissolved in DPBS, and concentrations were determined by BCA assay (Pierce) according to the manufacturer’s protocol. […]
# [1] = test system: S. epidermidis SK135 (MRSE); assay: MIC assay, anaerobic broth dilution; format: cell-based, Staphylococcus epidermidis; details: BHIS, 37 °C, 48 h, 3-fold serial dilution
# From the text: (§6) Next, we set out to test the antimicrobial activities of these purified lantibiotics against a panel of Gram-positive bacteria that are representatives of some of the most prevalent human pathogens: VRE, Methicillin-resistant S. aureus USA300 (MRSA), Methicillin-resistant Staphylococcus epidermidis SK135 (MRSE), Listeria monocytogenes 10403S, and Clostridioides difficile VPI10463. We examined the growth of bacteria in a 96-well plate under a concentration gradient of lantibiotics under anaerobic conditions (Figure S2B). […]
# (§7) For broth cultures, isolates were grown in pre-reduced BHI supplemented with 5 g/L yeast extract (Difco, BD) and 0.1% L-cysteine under anaerobic condition.
# (§8) Minimal Inhibition Concentration (MIC) assay
# (§9) All MIC assays were performed under anaerobic condition. Stationary bacterial culture in BHIS (BHI supplemented with 5 g/L yeast extract and 0.1% L-cysteine) were inoculated 1:100 to wells containing 200 µL BHIS in U-bottom 96-well plates. Lantibiotics were dissolved in DPBS, and concentrations were determined by BCA assay (Pierce) according to the manufacturer’s protocol.
# (§10) Lantibiotic stock solutions were added to wells to reach desired final concentration, with 3-fold serial dilution across rows to create concentration gradients. Bacteria-inoculated wells without lantibiotics served as control. […]
# B. luti MSK.20.18 = assay: MIC assay, anaerobic broth dilution; format: cell-based, Blautia luti; details: BHIS, 37 °C, 48 h, 3-fold serial dilution
# From the text: (§11) Antibiotic treatment may result in collateral damage to commensal bacteria in the human microbiome, leading to dysbiosis and susceptibility to various diseases.[44] How lantibiotics impact Gram-positive commensals from the human gut has remained unclear. Therefore, we performed antimicrobial activity tests of these lantibiotics against selected Gram-positive human gut commensals, most of which belong to the Lachnospiraceae family, one of the most abundant bacterial families in the human gut.[27] In general, human gut commensals were more susceptible to the set of investigated lantibiotics compared to pathogens (Figure 3). […]
# (§12) Isolation of human gut commensal bacteria
# Isolation and growth of commensal bacteria was done as previously reported.5 Briefly, fresh donor fecal samples were transferred into an anaerobic chamber (Coy Labs) within 1 h of collection. The anaerobic chamber was maintained using a gas mix consisting of 5% hydrogen, 5% carbon dioxide and 90% nitrogen, and hydrogen was maintained at ~3.0% using an anaerobic gas infuser. […]
# as §5
# [2] = test system: panel of Gram-positive human pathogens (VRE, MRSA, MRSE, L. monocytogenes, C. difficile); assay: MIC assay against the panel of Gram-positive human pathogens; format: cell-based; details: pathogen panel, Figure 3A-E; anaerobic
# From the text: as §1
# Elution Buffer (4 M guanidine hydrochloride, 20 mM Tris HCl, pH 7.5 at 25 °C, 100 mM NaCl, 1 M imidazole). Peptides eluted from the Ni resin were concentrated and desalted using 3 kDa Amicon filters (Millipore). For leader peptide removal, the peptide (1:20 trypsin to peptide) was incubated with the trypsin protease in 50 mM Tris-HCl, pH 8 overnight at 37 °C. Lastly, the core peptides were further purified with HPLC using an Agilent 1200 instrument (Agilent) as specified in general methods. About 1.5 mg recombinant peptide was obtained after HPLC purification per […]
# Purification of blauticin from Blautia producta SCSK
# Stationary anaerobic culture of BPSCSK was inoculated 1:100 to 1 L BHIS. Culture was incubated on a heating plate at 37 °C with 220 rpm stirring for 2 days in an anaerobic chamber. Bacteria were pelleted with 15,000 x g centrifugation for 15 min. The supernatant was acidified with acetic acid to pH 5.5 and filtered through a 0.22 um filter. Filtered supernatant was loaded onto a HiTrap SP HP column using an AKTA Pure FPLC, which was eluted sequentially with 3 CV of distilled water, 200 mM NaCl, 400 mM NaCl, 600 mM NaCl, 800 mM NaCl, and 1 M NaCl. The 800 mM NaCl eluate was concentrated with a 3 kDa Amicon filter, followed by dialyzation with DPBS using a 3 kDa Amicon filter. Purification of blauticin was confirmed by SDS-PAGE, VRE inhibition in vitro assay, and MALDI-TOF MS. […]
# as §7, §8, §9, §10
# C. difficile VPI10463 = assay: MIC assay, anaerobic broth dilution; format: cell-based, Clostridioides difficile; details: BHIS, 37 °C, 48 h, 3-fold serial dilution
# From the text: as §1, §2, §3, §4, §5
# [3] = test system: E. faecium ATCC700221 (VRE); assay: MIC assay, anaerobic broth dilution; format: cell-based, Enterococcus faecium; details: BHIS, 37 °C, 48 h, 3-fold serial dilution
# From the text: as §6, §7, §8, §9, §10
# C. comes MSK.11.23 = assay: MIC assay, anaerobic broth dilution; format: cell-based, Coprococcus comes
# From the text: as §11, §12
# Isolation and growth of commensal bacteria was done as previously reported.5 Briefly, fresh donor fecal samples were transferred into an anaerobic chamber (Coy Labs) within 1 h of collection. The anaerobic chamber was maintained using a gas mix consisting of 5% hydrogen, 5% carbon dioxide and 90% nitrogen, and hydrogen was maintained at ~3.0% using an anaerobic gas infuser. Fecal samples were resuspended in pre-reduced PBS and plated on Columbia blood agar or brain-heart infusion (BHI – Difco, BD) agar plates in three serial 10-fold dilutions and incubated at 37 °C for 48 – 96 h. Isolated colonies were re-streaked for purity onto Columbia blood agar and frozen in pre-reduced 10% glycerol in PBS.
# as §7, §8, §9
# Lantibiotic stock solutions were added to wells to reach desired final concentration, with 3-fold serial dilution across rows to create concentration gradients. Bacteria-inoculated wells without lantibiotics served as control. Plates were incubated at 37 °C for 48 h before being taken out of the anaerobic chamber for centrifugation. Plates were imaged with an iBright 1500 imager […]
# pellets than those without lantibiotics were identified as MIC.
substance,measurement,setting,value
"nisin A (I[Dhb]AI[Dha]LC[Abu]PGCK[Abu]GALMGCNMK[Abu]A[Abu]CHCSIHV[Dha]K; thioether 8-11, 13-19, 23-26, 25-28, 3-7; UniProt P13068 24-57, looked up) [prototypical class I lantibiotic produced by L. lactis, food preservative; commercial nisin A]",nisin A MIC,S. aureus USA300 (MRSA),2.67 µM
same,nisin A MIC,[1],2.67 µM
same,nisin A MIC,B. luti MSK.20.18,0.0329 µM
same,inhibitory activity against pathogens based on MIC (ranking in words),[2],strongest inhibitory activities
same,nisin A MIC,C. difficile VPI10463,2.67 µM
same,nisin A MIC,[3],1.48 µM
same,nisin A MIC,"C. comes MSK.11.23; C. comes MSK.11.23, anaerobic, BHIS, 37 °C, 48 h, 3-fold serial dilution",0.296 µM
same,sensitivity of C. comes MSK.11.23 to the lantibiotic (in words),"C. comes MSK.11.23; Figure 3, anaerobic MIC assay",relatively resistant
